Measured values as given in patent US20180141962A1, “AZACARBAZOLE BTK INHIBITORS” (MERCK SHARP & DOHME CORP., priority 2015, published 2018).
pIC50: −log10 of the molar value.

Molecular target: T1, BTK enzyme (recombinant full-length BTK, hBTK) (Homo sapiens, UniProt Q06187)
T1 construct: recombinant protein from baculovirus-transfected Sf9 cells: full-length BTK, 6HIS-tag cleaved; 6HIS (cleaved yes); made in house; host or cells: baculovirus-transfected Sf9 cells
Test: Btk enzyme activity assay, LANCE TR-FRET
Type: biochemical
Conditions: 50 pM hBTK, 2 μM biotin-A5-peptide, 25 μM ATP; 60 minute compound & enzyme incubation; 120 minutes reaction; read-out: BTK binding potency IC50
Procedure: Btk Enzyme Activity Assay Methods
BTK enzymatic activity was determined with the LANCE (Lanthanide Chelate Excite) TR-FRET (lime-resolved fluorescence resonance energy transfer) assay. […] Phosphorylation reactions were allowed to proceed for 120 minutes. […] After 60 minutes incubation with detection reagents, reaction plates were read on a PerkinElmer EnVision plate reader using standard TR-FRET protocol. Briefly, excitation of donor molecules (Eu-chelate:anti-phospho-antibody) with a laser light source at 337 nm produces energy that can be transferred to Dylight-650 acceptor molecules if this donor:acceptor pair is within close proximity. Fluorescence intensity at both 665 nm (acceptor) and 615 nm (donor) are measured and a TR-FRET ratio calculated for each well (acceptor intensity/donor intensity). IC50 values were determined by 4 parameter robust fit of TR-FRET ratio values vs. (Log10) compound concentrations.

T1 sequence (Q06187 whole entry): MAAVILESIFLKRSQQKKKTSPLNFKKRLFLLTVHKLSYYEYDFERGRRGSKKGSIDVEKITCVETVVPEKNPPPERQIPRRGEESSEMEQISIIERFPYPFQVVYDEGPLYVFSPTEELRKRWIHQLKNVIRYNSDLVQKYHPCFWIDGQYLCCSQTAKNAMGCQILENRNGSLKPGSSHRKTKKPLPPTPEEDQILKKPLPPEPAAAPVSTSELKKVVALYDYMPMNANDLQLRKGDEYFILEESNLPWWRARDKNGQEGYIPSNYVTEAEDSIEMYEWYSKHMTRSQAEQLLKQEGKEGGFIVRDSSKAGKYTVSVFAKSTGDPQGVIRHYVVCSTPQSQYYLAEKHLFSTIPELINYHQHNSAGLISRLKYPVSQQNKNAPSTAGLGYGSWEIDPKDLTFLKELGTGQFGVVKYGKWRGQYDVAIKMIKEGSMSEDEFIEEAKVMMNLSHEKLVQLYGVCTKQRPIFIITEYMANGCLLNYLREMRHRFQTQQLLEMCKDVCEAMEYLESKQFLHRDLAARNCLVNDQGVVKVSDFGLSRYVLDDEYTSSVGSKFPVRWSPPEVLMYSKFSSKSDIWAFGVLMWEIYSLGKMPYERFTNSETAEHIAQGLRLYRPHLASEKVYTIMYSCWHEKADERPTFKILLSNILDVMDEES

| SMILES | pIC50 |
| --- | --- |
| NC(=O)c1cnc(N2CCC3(CCCN(c4ccc(F)cc4)C3=O)C2)c2c1[nH]c1ccccc12 (stereo not drawn) [Example 33, 1-[7-(4-fluorophenyl)-6-oxo-2,7-diazaspiro[4.5]dec-2-yl]-5H-pyrido[4,3-b]indole-4-carboxamide] | 6.67 |
| CCN1CCC(c2ccc3[nH]c4c(C(N)=O)cnc(N5CCCC6(CCNC6=O)C5)c4c3c2)CC1 (stereo not drawn) [Example 49, 8-(1-ethylpiperidin-4-yl)-1-(1-oxo-2,7-diazaspiro[4.5]dec-7-yl)-5H-pyrido[4,3-b]indole-4-carboxamide] | 7.06 |
| CC(C)N1CCCC2(CCCN(c3ncc(C(N)=O)c4[nH]c5ccccc5c34)C2)C1=O (stereo not drawn) [Example 39, 1-[8-(1-methylethyl)-7-oxo-2,8-diazaspiro[5.5]undec-2-yl]-5H-pyrido[4,3-b]indole-4-carboxamide] | 6.92 |
| CC(=O)N1CCC2(C1)CN(c1ncc(C(N)=O)c3[nH]c4ccccc4c13)C2 [Example 27, 1-(6-acetyl-2,6-diazaspiro[3.4]oct-2-yl)-5H-pyrido[4,3-b]indole-4-carboxamide] | 6.63 |
| CS(=O)(=O)N1CCC(c2ccc3[nH]c4c(C(N)=O)cnc(N5CCCC6(CCNC6=O)C5)c4c3c2)CC1 (stereo not drawn) [Example 66, 8-[1-(methylsulfonyl)piperidin-4-yl]-1-(1-oxo-2,7-diazaspiro[4.5]dec-7-yl)-5H-pyrido[4,3-b]indole-4-carboxamide] | 6.90 |
| CC(=O)N1CC2(CCCN(c3ncc(C(N)=O)c4[nH]c5ccccc5c34)C2)C1 [Example 29, 1-(2-acetyl-2,6-diazaspiro[3.5]non-6-yl)-5H-pyrido[4,3-b]indole-4-carboxamide] | 6.57 |
| NC(=O)c1cnc(N2CCCC3(C2)C(=O)NCC3O)c2c1[nH]c1ccccc12 (mixture of isomers) [Example 86, 1-(4-hydroxy-1-oxo-2,7-diazaspiro[4.5]decan-7-yl)-5H-pyrido[4,3-b]indole-4-carboxamide] | 6.77 |
| CC(=O)N1CCC(c2ccc3[nH]c4c(C(N)=O)cnc(N5CCCC6(CCNC6=O)C5)c4c3c2)CC1 (stereo not drawn) [Example 61, 8-(1-acetylpiperidin-4-yl)-1-(1-oxo-2,7-diazaspiro[4.5]dec-7-yl)-5H-pyrido[4,3-b]indole-4-carboxamide] | 7.09 |
| COC(=O)CCN1CCCC2(CCCN(c3ncc(C(N)=O)c4[nH]c5ccccc5c34)C2)C1=O (stereo not drawn) [Example 31, methyl 3-[8-(4-carbamoyl-5H-pyrido[4,3-b]indol-1-yl)-1-oxo-2,8-diazaspiro[5.5]undec-2-yl]propanoate] | 7.01 |
| NC(=O)c1cnc(N2CCCC3(C2)OCCN(c2ccc(F)cc2)C3=O)c2c1[nH]c1ccccc12 (stereo not drawn) [Example 3, 1-(4-(4-fluorophenyl)-5-oxo-1-oxa-4,8-diazaspiro[5.5]undecan-8-yl)-5H-pyrido[4,3-b]indole-4-carboxamide] | 6.96 |
| CC(C)(C)OC(=O)N1CCC(c2ccc3[nH]c4c(C(N)=O)cnc(N5CCCC6(CCNC6=O)C5)c4c3c2)CC1 (stereo not drawn) [Example 46, tert-butyl 4-[4-carbamoyl-1-(1-oxo-2,7-diazaspiro[4.5]dec-7-yl)-5H-pyrido[4,3-b]indol-8-yl]piperidine-1-carboxylate] | 6.42 |
| O=C(NO)c1cnc(N2CCCC3(CCNC3=O)C2)c2c1[nH]c1ccccc12 (stereo not drawn) [Example 9, N-hydroxy-1-(1-oxo-2,7-diazaspiro[4.5]dec-7-yl)-5H-pyrido[4,3-b]indole-4-carboxamide] | 6.42 |
| NC(=O)c1cnc(N2CCC[C@]3(C2)C(=O)NC[C@@H]3c2ccccc2)c2c1[nH]c1ccccc12 (single isomer, unassigned) [Example 89, 1-[(trans)-1-oxo-4-phenyl-2,7-diazaspiro[4.5]dec-7-yl]-5H-pyrido[4,3-b]indole-4-carboxamide] | 6.17 |
| CNC(=O)N1CCC(c2ccc3[nH]c4c(C(N)=O)cnc(N5CCCC6(CCNC6=O)C5)c4c3c2)CC1 (stereo not drawn) [Example 47, 8-[1-(methylcarbamoyl)piperidin-4-yl]-1-(1-oxo-2,7-diazaspiro[4.5]dec-7-yl)-5H-pyrido[4,3-b]indole-4-carboxamide] | 7.14 |
| COC(=O)N1CCC(c2ccc3[nH]c4c(C(N)=O)cnc(N5CCCC6(CCNC6=O)C5)c4c3c2)CC1 (stereo not drawn) [Example 51, methyl 4-[4-carbamoyl-1-(1-oxo-2,7-diazaspiro[4.5]dec-7-yl)-5H-pyrido[4,3-b]indol-8-yl]piperidine-1-carboxylate] | 7.06 |

Other lines, results leading:

| pIC50 | SMILES |
| --- | --- |
| 8.05 | NC(=O)c1cnc(N2CCC[C@]3(C2)C(=O)NC[C@@H]3O)c2c1[nH]c1ccccc12 [Example 24, 1-[(4R,5R)-4-hydroxy-1-oxo-2,7-diazaspiro[4.5]dec-7-yl]-5H-pyrido[4,3-b]indole-4-carboxamide] |
| 8.26 | COC(=O)CC1CCC(c2ccc3c(c2)[nH]c2c(C(N)=O)cnc(N4CCC[C@@]5(CCN(C)C5=O)C4)c23)CC1 (stereo partly drawn) [Example 81, methyl (4-{4-carbamoyl-1-[(5R)-2-methyl-1-oxo-2,7-diazaspiro[4.5]dec-7-yl]-5H-pyrido[4,3-b]indol-7-yl}cyclohexyl)acetate] |
| 7.20 | CN1CC[C@@]2(CCCN(c3ncc(C(N)=O)c4[nH]c5cc(-c6cccc(C(O)C(F)(F)F)c6)ccc5c34)C2)C1=O (stereo partly drawn) [Example 79, 1-[(5R)-2-methyl-1-oxo-2,7-diazaspiro[4.5]dec-7-yl]-7-[3-(2,2,2-trifluoro-1-hydroxyethyl)phenyl]-5H-pyrido[4,3-b]indole-4-carboxamide] |
| 7.90 | Cc1noc(C)c1-c1ccc2c(c1)[nH]c1c(C(N)=O)cnc(N3CCC[C@@]4(CCN(C)C4=O)C3)c12 [Example 80, 7-(3,5-dimethylisoxazol-4-yl)-1-[(5R)-2-methyl-1-oxo-2,7-diazaspiro[4.5]dec-7-yl]-5H-pyrido[4,3-b]indole-4-carboxamide] |
| 7.22 | CN1CC[C@@]2(CCCN(c3ncc(C(N)=O)c4[nH]c5cc(-c6ccc(C(O)C(F)(F)F)cc6)ccc5c34)C2)C1=O (stereo partly drawn) [Example 78, 1-[(5R)-2-methyl-1-oxo-2,7-diazaspiro[4.5]dec-7-yl]-7-[4-(2,2,2-trifluoro-1-hydroxyethyl)phenyl]-5H-pyrido[4,3-b]indole-4-carboxamide] |
| 8.80 | NC(=O)c1cnc(N2CCCC3(CCNC3=O)C2)c2c1[nH]c1cc(C3CCN(CC(=O)O)CC3)ccc12 (stereo not drawn) [Example 59, {4-[4-carbamoyl-1-(1-oxo-2,7-diazaspiro[4.5]dec-7-yl)-5H-pyrido[4,3-b]indol-7-yl]piperidin-1-yl}acetic acid] |
| 9.19 | CC(C)N1CCC(c2ccc3c(c2)[nH]c2c(C(N)=O)cnc(N4CCC[C@@]5(CCN(C)C5=O)C4)c23)CC1 [Example 76, 7-[1-(1-methylethyl)piperidin-4-yl]-1-[(5R)-2-methyl-1-oxo-2,7-diazaspiro[4.5]dec-7-yl]-5H-pyrido[4,3-b]indole-4-carboxamide] |
| 8.85 | CC(=O)N1CCC(c2ccc3c(c2)[nH]c2c(C(N)=O)cnc(N4CCCC5(CCNC5=O)C4)c23)CC1 (stereo not drawn) [Example 58, 7-(1-acetylpiperidin-4-yl)-1-(1-oxo-2,7-diazaspiro[4.5]dec-7-yl)-5H-pyrido[4,3-b]indole-4-carboxamide] |
| 7.76 | COc1cc(-c2ccc3c(c2)[nH]c2c(C(N)=O)cnc(N4CCC[C@@]5(CCNC5=O)C4)c23)ccn1 [Example 69, 7-(2-methoxypyridin-4-yl)-1-[(5R)-1-oxo-2,7-diazaspiro[4.5]dec-7-yl]-5H-pyrido[4,3-b]indole-4-carboxamide] |
| 7.23 | CC(C)N1CCC(c2ccc3[nH]c4c(C(N)=O)cnc(N5CCCC6(CCNC6=O)C5)c4c3c2)CC1 (stereo not drawn) [Example 50, 8-[1-(1-methylethyl)piperidin-4-yl]-1-(1-oxo-2,7-diazaspiro[4.5]dec-7-yl)-5H-pyrido[4,3-b]indole-4-carboxamide] |
| 7.22 | CC(C)(O)CN1CCC(c2ccc3[nH]c4c(C(N)=O)cnc(N5CCCC6(CCNC6=O)C5)c4c3c2)CC1 (stereo not drawn) [Example 62, 8-[1-(2-hydroxy-2-methylpropyl)piperidin-4-yl]-1-(1-oxo-2,7-diazaspiro[4.5]dec-7-yl)-5H-pyrido[4,3-b]indole-4-carboxamide] |
| 9.20 | CC(C)(O)CN1CCC(c2ccc3c(c2)[nH]c2c(C(N)=O)cnc(N4CCC[C@@]5(CCNC5=O)C4)c23)CC1 [Example 72, 7-[1-(2-hydroxy-2-methylpropyl)piperidin-4-yl]-1-[(5R)-1-oxo-2,7-diazaspiro[4.5]dec-7-yl]-5H-pyrido[4,3-b]indole-4-carboxamide] |
| 8.41 | NC(=O)c1cnc(N2CCC[C@@]3(CCNC3=O)C2)c2c1[nH]c1cc(-c3ccc(=O)[nH]c3)ccc12 [Example 68, 1-[(5R)-1-oxo-2,7-diazaspiro[4.5]dec-7-yl]-7-(6-oxo-1,6-dihydropyridin-3-yl)-5H-pyrido[4,3-b]indole-4-carboxamide] |
| 9.26 | CN1CC[C@@]2(CCCN(c3ncc(C(N)=O)c4[nH]c5cc(C6CCN(CC(C)(C)O)CC6)ccc5c34)C2)C1=O [Example 77, 7-[1-(2-hydroxy-2-methylpropyl)piperidin-4-yl]-1-[(5R)-2-methyl-1-oxo-2,7-diazaspiro[4.5]dec-7-yl]-5H-pyrido[4,3-b]indole-4-carboxamide] |

Same assay, conditions: BTK binding potency IC50 (nM), 50 pM hBTK, 2 μM biotin-A5-peptide, 25 μM ATP; 60 minute compound & enzyme incubation; 120 minutes reaction

| IC50 [nM] | SMILES |
| --- | --- |
| 10.7 | NC(=O)c1cnc(N2CCCC3(CCNC3=O)C2)c2c1[nH]c1ccccc12 (stereo in doubt) [Example 41, 1-[(5S)-1-oxo-2,7-diazaspiro[4.5]dec-7-yl]-5H-pyrido[4,3-b]indole-4-carboxamide] |
